As usually defined, the IC50 is the point on the concentration scale where inhibition reaches its midpoint. As usually defined, the EC50 is the midpoint of the concentration-response curve. A lower EC50 goes with higher potency in that assay.

The test system of data set [1] is CAL-27. In words: Cytotoxicity against human CAL-27 cells incubated for 24 hrs by Alamar blue assay. The settings on record: CAL-27, 24 h. In general terms: The colour change of resazurin is a common sign of viable cells or microbes.
Data set [2] concerns the target Pyruvate kinase PKM (Homo sapiens, UniProt P14618). In words: Activation of PKM2 (unknown origin) by LDH enzyme coupled assay.
Data set [3] has as its target Vascular endothelial growth factor receptor 2 (Homo sapiens, UniProt P35968). In words: Inhibition of human VEGFR2 by ELISA. In general terms: An ELISA detects its analyte on a solid surface through an enzyme-linked reagent.
A short description of data set [4]: Antiproliferative activity against OSCC (unknown origin). The data set is classed as functional, cell-based. The settings on record: Oral cancer cell.
A short description of data set [5]: Cytotoxicity against normal epithelial cells (unknown origin) incubated for 24 hrs by Alamar blue assay. The data set is classed as toxicity, cell-based, Epithelial cell.
In data set [6] the test system is CAL-27. In words: Induction of apoptosis in human CAL-27 cells assessed as viable cells at IC50 concentration incubated for 24 hrs by Annexin V-FITC/PI staining based flow cytometry analysis (reference value: 97.36%). The data set is classed as functional. Background: Flow cytometry measures light scatter and fluorescence of single cells or particles in a stream.

Chain of Vascular endothelial growth factor receptor 2 (P35968 whole entry): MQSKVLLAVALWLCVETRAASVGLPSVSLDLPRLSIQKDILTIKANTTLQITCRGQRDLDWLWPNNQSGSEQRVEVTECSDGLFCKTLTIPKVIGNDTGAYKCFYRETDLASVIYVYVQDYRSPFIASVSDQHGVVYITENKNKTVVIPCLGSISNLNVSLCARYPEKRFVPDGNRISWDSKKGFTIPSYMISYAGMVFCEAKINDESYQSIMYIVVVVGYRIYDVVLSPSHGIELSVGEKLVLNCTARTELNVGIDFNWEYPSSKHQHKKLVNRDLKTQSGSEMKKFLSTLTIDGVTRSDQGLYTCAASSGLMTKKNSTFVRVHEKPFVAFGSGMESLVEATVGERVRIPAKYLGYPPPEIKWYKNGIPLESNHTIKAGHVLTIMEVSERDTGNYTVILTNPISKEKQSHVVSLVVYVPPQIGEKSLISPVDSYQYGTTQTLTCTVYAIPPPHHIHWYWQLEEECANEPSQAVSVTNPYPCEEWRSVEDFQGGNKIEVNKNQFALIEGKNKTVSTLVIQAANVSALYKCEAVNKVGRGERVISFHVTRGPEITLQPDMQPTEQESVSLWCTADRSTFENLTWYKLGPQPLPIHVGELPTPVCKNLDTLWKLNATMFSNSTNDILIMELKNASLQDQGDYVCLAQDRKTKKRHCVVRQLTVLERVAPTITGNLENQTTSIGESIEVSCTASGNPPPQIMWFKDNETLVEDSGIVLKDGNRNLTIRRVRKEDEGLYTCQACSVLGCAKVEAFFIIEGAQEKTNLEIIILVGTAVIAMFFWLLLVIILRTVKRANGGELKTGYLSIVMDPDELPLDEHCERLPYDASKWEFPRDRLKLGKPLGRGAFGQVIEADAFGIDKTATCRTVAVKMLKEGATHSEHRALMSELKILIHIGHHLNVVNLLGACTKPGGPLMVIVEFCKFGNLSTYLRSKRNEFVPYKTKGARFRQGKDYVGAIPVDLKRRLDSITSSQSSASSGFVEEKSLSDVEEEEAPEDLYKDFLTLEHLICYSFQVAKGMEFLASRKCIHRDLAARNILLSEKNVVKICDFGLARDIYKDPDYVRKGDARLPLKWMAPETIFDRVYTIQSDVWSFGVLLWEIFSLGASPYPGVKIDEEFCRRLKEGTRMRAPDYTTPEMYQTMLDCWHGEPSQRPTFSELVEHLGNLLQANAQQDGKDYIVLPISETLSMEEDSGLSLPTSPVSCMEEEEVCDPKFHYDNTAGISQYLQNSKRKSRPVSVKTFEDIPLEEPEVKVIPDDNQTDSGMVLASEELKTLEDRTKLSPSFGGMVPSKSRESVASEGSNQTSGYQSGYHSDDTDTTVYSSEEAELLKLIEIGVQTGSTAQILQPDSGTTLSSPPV
Chain of Pyruvate kinase PKM (P14618 whole entry): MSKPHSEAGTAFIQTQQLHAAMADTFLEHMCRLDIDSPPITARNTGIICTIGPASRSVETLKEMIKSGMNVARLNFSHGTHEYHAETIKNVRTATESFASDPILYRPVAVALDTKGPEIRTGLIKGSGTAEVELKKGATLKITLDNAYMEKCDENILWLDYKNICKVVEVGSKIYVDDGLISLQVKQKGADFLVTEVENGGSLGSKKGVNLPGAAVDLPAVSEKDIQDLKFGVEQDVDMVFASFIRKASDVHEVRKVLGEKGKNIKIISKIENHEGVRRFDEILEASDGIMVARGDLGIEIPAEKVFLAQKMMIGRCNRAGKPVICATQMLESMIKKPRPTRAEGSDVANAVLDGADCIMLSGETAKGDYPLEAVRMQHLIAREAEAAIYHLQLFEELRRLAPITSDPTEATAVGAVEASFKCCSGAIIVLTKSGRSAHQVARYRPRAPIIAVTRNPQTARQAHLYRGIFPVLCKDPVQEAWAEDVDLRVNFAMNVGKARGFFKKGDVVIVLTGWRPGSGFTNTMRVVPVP

As for `Clc1ccc(-c2ccn3c(-c4cnc5ccccc5n4)cnc3n2)c(Cl)c1`, the IC50 in data set [1] is > 100 µM.
The same measure, in the same setting: for `Cc1ccc(-c2ccn3c(-c4cnc5ccccc5n4)cnc3n2)cc1` the value was 64.8 µM.
As for `O=S(=O)(c1ccc2c(c1)OCCO2)N1CCN(S(=O)(=O)c2c(F)cccc2F)CC1`, a half-maximal effect in data set [2] (EC50) was put at 0.241 µM.
In data set [3], `Cc1nc2ccccc2n(CC(=O)Nc2ccc(C(=O)Nc3cccc(Cl)c3)cc2)c1=O` gave a 50% inhibitory concentration (IC50) of 0.0027 µM. This lies in the single-digit nanomolar range.
Regarding `COc1ccc(OC)c(C(=O)/C=C/c2ccc3nccnc3c2)c1`, half-maximal inhibition in data set [4] (IC50) required 7.81 µM. In other words, the single-digit micromolar range.
In turn, `Clc1ccccc1-c1ccn2c(-c3cnc4ccccc4n3)cnc2n1` returned a 50% inhibitory concentration (IC50) in data set [1] of 13.7 µM. Also, the IC50 at 24 h in data set [5] is 133 µM.
With `Clc1ccc2ncc(-c3cnc4ncccn34)nc2c1`, the half-maximal inhibitory concentration (IC50) in data set [1] is > 100 µM.
`Brc1ccc2ncc(-c3cnc4ccccn34)nc2c1`: the IC50 in data set [1] worked out at 16 µM. The molecule also yielded an IC50 at 24 h in data set [5] of 20.9 µM.
The corresponding values for `O=[N+]([O-])c1ccc2ncc(-c3cnc4ncccn34)nc2c1` are 19.7 µM and 18.3 µM.
With `FC(F)(F)c1ccc(-c2ccn3c(-c4cnc5ccccc5n4)cnc3n2)cc1`, in data set [1], the 50% inhibitory concentration (IC50) is > 100 µM.
Molecule `Clc1cc2ncc(-c3cnc4ncccn34)nc2cc1Cl` gave an IC50 in data set [1] of 25.3 µM. This molecule returned an IC50 at 24 h in data set [5] of 15.8 µM.
As for `Fc1ccc2ncc(-c3cnc4ncccn34)nc2c1`, in data set [1], the IC50 was > 100 µM.
Take `Fc1ccc2ncc(-c3cnc4ccccn34)nc2c1`: the IC50 in data set [1] was > 100 µM.
`Clc1cc2ncc(-c3cnc4ccccn34)nc2cc1Cl` yielded an IC50 in data set [1] of 15.1 µM. Further, 23.9 µM corresponded to half-maximal inhibition in data set [5] (IC50 at 24 h).
The molecule `c1ccc(-c2ccn3c(-c4cnc5ccccc5n4)cnc3n2)cc1` showed an IC50 in data set [1] of 10.3 µM. For the same molecule, inhibition in data set [5] was half-maximal at 47.5 µM (IC50 at 24 h).
For the molecule `Clc1ccc(-c2ccn3c(-c4cnc5ccccc5n4)cnc3n2)cc1`, the Activity in data set [6] is on record as 79.07%.
Take `Clc1ccc2ncc(-c3cnc4ccccn34)nc2c1`: the IC50 in data set [1] turned out to be 12.8 µM. Further, it took 19.2 µM to reach half-maximal inhibition in data set [5] (IC50 at 24 h).
In the same order, the values of `Cc1ccc2ncc(-c3cnc4ccccn34)nc2c1` are 18.5 µM and 22.5 µM.
As for `c1ccc2nc(-c3cnc4ncccn34)cnc2c1`, the IC50 in data set [1] was > 100 µM.
The same measure, in the same setting: the figure for `Fc1ccc(-c2ccn3c(-c4cnc5ccccc5n4)cnc3n2)cc1` is > 100 µM.
Consider `O=C(c1ccccc1)c1ccc2ncc(-c3cnc4ncccn34)nc2c1`, for which the IC50 in data set [1] is 17 µM. In addition, the IC50 at 24 h in data set [5] was 16.7 µM.
The corresponding values for `O=C(c1ccccc1)c1ccc2ncc(-c3cnc4ccccn34)nc2c1` are 14.6 µM and 24.9 µM.
On to `CS(=O)(=O)c1ccc(-c2ccn3c(-c4cnc5ccccc5n4)cnc3n2)cc1`, for which the IC50 in data set [1] is > 100 µM.
The same measure, in the same setting: for `Fc1ccccc1-c1ccn2c(-c3cnc4ccccc4n3)cnc2n1` the value was > 100 µM.
Take `O=[N+]([O-])c1ccc2ncc(-c3cnc4ccccn34)nc2c1`: 27.2 µM corresponded to half-maximal inhibition in data set [1] (IC50). The molecule further had an IC50 at 24 h in data set [5] of 20.8 µM.
`c1ccc2nc(-c3cnc4ccccn34)cnc2c1`: the IC50 in data set [1] was > 100 µM.
On to `Cc1ccc2ncc(-c3cnc4n3C=C=C=N4)nc2c1`, for which the IC50 in data set [1] is > 100 µM.
In data set [1], `Brc1ccc2ncc(-c3cnc4ncccn34)nc2c1` returned an IC50 of 21.6 µM. In data set [5], this molecule gave an IC50 at 24 h of 15.2 µM.
